Measured values: article PMC11721672, “Design, Structure–Activity Relationships, and Computational Modeling Studies of a Series of α-Helix Biased, Ultra-Short Glucagon-like Peptide-1 Receptor Agonists” (Molecules, 2024)
Like-named read-outs stand apart in the source and are kept apart here. Square brackets hold non-standard residues; d marks the D form. Peptide text beside a SMILES is read from it. Bip = N[C@@H](Cc1ccc(-c2ccccc2)cc1)C(=O)O; αMePhe(2-F) = C[C@](N)(Cc1ccccc1F)C(=O)O; Phe(2-F) = N[C@@H](Cc1ccccc1F)C(=O)O; αMeF = C[C@](N)(Cc1ccccc1)C(=O)O; Aib = CC(C)(N)C(=O)O

Assays:
[1] = molecular target: human GLP-1 receptor (hGLP-1R); parameters: method as in PMID 31031702; conditions: read-out: potency at the human GLP-1 receptor; cited from earlier work
hGLP1 receptor = molecular target: T1, hGLP1 receptor (Homo sapiens, UniProt P43220); assay: GLP-1 receptor agonism assay (HTRF cAMP, HEK cells co-expressing hGLP1 receptor and CRE-Luciferase); assay type: cell-based; conditions: for Emax: HEK293, Table 6 potency profile
T1 construct: expressed in transfected cells; host or cells: HEK (human embryonic kidney) cells co-expressing hGLP1 receptor and CRE-Luciferase
T1 sequence (P43220 24-463): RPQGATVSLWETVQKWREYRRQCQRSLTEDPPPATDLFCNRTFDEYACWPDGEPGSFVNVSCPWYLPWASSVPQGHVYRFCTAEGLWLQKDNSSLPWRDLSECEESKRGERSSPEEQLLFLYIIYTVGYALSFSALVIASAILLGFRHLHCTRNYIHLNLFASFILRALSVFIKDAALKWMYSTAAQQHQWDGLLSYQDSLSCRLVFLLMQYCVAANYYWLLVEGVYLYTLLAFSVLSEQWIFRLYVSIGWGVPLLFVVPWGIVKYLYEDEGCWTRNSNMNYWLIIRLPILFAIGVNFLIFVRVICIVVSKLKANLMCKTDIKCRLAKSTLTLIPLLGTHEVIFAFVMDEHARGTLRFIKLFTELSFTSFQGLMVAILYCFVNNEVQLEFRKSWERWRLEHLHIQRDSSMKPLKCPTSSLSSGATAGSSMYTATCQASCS
Experimental: Human embryonic kidney cells (HEK) co-expressing the hGLP1 receptor and CRE-Luciferase construct were used to determine agonist potency in this assay. The cells were thawed briefly at 37 °C, transferred to a sterile tube, and re-suspended in complete media at 37 °C. Cells were centrifuged at 1000 rpm for 5 min and collected; the cells were then re-suspended in an assay buffer consisting of Dulbecco’s phosphate-buffered saline (DPBS, GIBCO) with 500 μM of the phosphodiesterase inhibitor 3-isobutyl-1-methylxanthine (IBMX). The assay medium had 0% serum albumin, as specified in Table 1, Table 2, Table 3 and Table 4. The optimal cell density was determined to be 1000 cells/well. Cells were added to wells in 384-well plates containing appropriate pre-prepared dilutions of compounds (test peptides or reference compound exendin-4), sealed, and incubated with CO2 for 30 min. Test peptide solutions were diluted from 10 mM stock solutions to be used in two separate runs (performed in triplicate) from a maximal concentration of 1.0 μM, with 11 concentrations tested for each peptide using serial 1:3 dilution from this maximal concentration. […] The agonist assay was a homogeneous time-resolved fluorescence (HTRF) assay (Cisbio). Following incubation of the cells for 30 min with test or reference peptides, 5 μL of the cAMP acceptor cAMP-d2, prepared previously as a working solution from frozen stock (1:20 dilution), was added to each well of the assay plate along with 5 μL of anti-cAMP antibody-cryptate working solution (diluted 1:20 from frozen stock). The wells were incubated for 1 h at room temperature, and fluorescence was then read at 665 and 615 nm with an Envision reader with a TRF laser. Data were saved and analyzed using Prism software (GraphPad). Concentration–response analysis was performed using 4-parameter logistic fits of the resulting data, and EC50 values were obtained for each test and reference compound.

[2] = Table 2, Ala-scanning, 0% HSA, >1000 nM = out of range, read-out: cAMP EC50
[3] = Table 1, Phe6 modifications, 0% HSA, average of two independent experiments in triplicate (RXL-3039 tested once), read-out: cAMP EC50

Molecule | Emax (hGLP1 receptor) [%] | EC50 (hGLP1 receptor; [2]) [nM] | EC50 (hGLP1 receptor; [3]) [nM] | also measured
semaglutide |  |  |  | EC50 [1]: 0.0062 nM
C[C@H](NC(=O)C(C)(C)NC(=O)[C@@H](N)Cc1c[nH]cn1)C(=O)NCC(=O)N[C@H](C(=O)N[C@@H](Cc1ccccc1F)C(=O)N[C@H](C(=O)N[C@@H](CO)C(=O)N[C@@H](CC(=O)O)C(=O)N[C@@H](Cc1ccc(-c2ccccc2)cc1)C(=O)N[C@@H](Cc1ccc(-c2ccccc2)cc1)C(N)=O)[C@@H](C)O)[C@@H](C)O [RXL-3003, His-Aib-Ala-Gly-Thr-Phe(2-F)-Thr-Ser-Asp-Bip-Bip-NH2] | 108 | 7.9 |  | 
C[C@H](NC(=O)[C@H](Cc1ccc(-c2ccccc2)cc1)NC(=O)[C@H](CC(=O)O)NC(=O)[C@H](CO)NC(=O)[C@@H](NC(=O)[C@H](Cc1ccccc1F)NC(=O)[C@@H](NC(=O)CNC(=O)[C@H](CCC(=O)O)NC(=O)C(C)(C)NC(=O)[C@@H](N)Cc1c[nH]cn1)[C@@H](C)O)[C@@H](C)O)C(N)=O [RXL-3009, His-Aib-Glu-Gly-Thr-Phe(2-F)-Thr-Ser-Asp-Bip-Ala-NH2] | 43.2 | > 1000 |  | decreased potency by Ala substitution in RXL-3000 (hGLP1 receptor; Ala-scanning, versus RXL-3000): > 1000 fold; decreased potency (Aib/Ala comparison) (hGLP1 receptor; versus respective parent analog): 10,000 fold
C[C@@H](O)[C@H](NC(=O)CNC(=O)[C@H](CCC(=O)O)NC(=O)C(C)(C)NC(=O)[C@@H](N)Cc1c[nH]cn1)C(=O)N[C@@H](Cc1cc(F)c(F)c(F)c1)C(=O)N[C@H](C(=O)N[C@@H](CO)C(=O)N[C@@H](CC(=O)O)C(=O)N[C@@H](Cc1ccc(-c2ccccc2)cc1)C(=O)N[C@@H](Cc1ccc(-c2ccccc2)cc1)C(N)=O)[C@@H](C)O [RXL-3017, His-Aib-Glu-Gly-Thr-Phe(3,4,5-F)-Thr-Ser-Asp-Bip-Bip-NH2] | 113 |  | 7.2 | 
C[C@@H](O)[C@H](NC(=O)CNC(=O)[C@H](CCC(=O)O)NC(=O)C(C)(C)NC(=O)[C@@H](N)Cc1c[nH]cn1)C(=O)N[C@@](C)(Cc1ccccc1F)C(=O)N[C@H](C(=O)N[C@@H](CO)C(=O)N[C@@H](CC(=O)O)C(=O)N[C@@H](Cc1ccc(-c2ccccc2)cc1)C(=O)N[C@@H](Cc1ccc(-c2ccccc2)cc1)C(N)=O)[C@@H](C)O [RXL-101, His-Aib-Glu-Gly-Thr-α-Me-Phe(2-F)-Thr-Ser-Asp-Bip-Bip-NH2] (H-H[Aib]EGT[αMePhe(2-F)]TSD[Bip][Bip]-NH2) | 117 |  |  | Cα-methylation pEC50 contribution for position 6 (hGLP1 receptor; pEC50 of RXL-101 minus pEC50 of RXL-3000): 0.97
C[C@@H](O)[C@H](NC(=O)CNC(=O)[C@H](CCC(=O)O)NC(=O)C(C)(C)NC(=O)[C@@H](N)Cc1c[nH]cn1)C(=O)N[C@@H](Cc1ccccc1F)C(=O)N[C@H](C(=O)N[C@@H](CO)C(=O)N[C@@H](CC(=O)O)C(=O)N[C@@H](Cc1ccc(-c2ccccc2)cc1)C(=O)N[C@@H](Cc1ccc(-c2ccccc2)cc1)C(N)=O)[C@@H](C)O [RXL-3000, His-Aib-Glu-Gly-Thr-Phe(2-F)-Thr-Ser-Asp-Bip-Bip-NH2] | 109 | 0.1 | 0.1 | EC50 (hGLP1 receptor; Table 3, Aib-scanning, 0% HSA, >1000 nM = out of range, read-out: cAMP EC50): 0.1 nM; GLP-1R agonist potency greater versus the parent peptide RXL-100 (hGLP1 receptor; versus RXL-100): approximately fivefold
C[C@H](N)C(=O)NC(C)(C)C(=O)N[C@@H](CCC(=O)O)C(=O)NCC(=O)N[C@H](C(=O)N[C@@H](Cc1ccccc1F)C(=O)N[C@H](C(=O)N[C@@H](CO)C(=O)N[C@@H](CC(=O)O)C(=O)N[C@@H](Cc1ccc(-c2ccccc2)cc1)C(=O)N[C@@H](Cc1ccc(-c2ccccc2)cc1)C(N)=O)[C@@H](C)O)[C@@H](C)O [RXL-3001, Ala-Aib-Glu-Gly-Thr-Phe(2-F)-Thr-Ser-Asp-Bip-Bip-NH2] | 108 | 21.9 |  | 
C[C@@H](O)[C@H](NC(=O)CNC(=O)[C@H](CCC(=O)O)NC(=O)C(C)(C)NC(=O)[C@@H](N)Cc1c[nH]cn1)C(=O)N[C@@H](Cc1c(F)c(F)c(F)c(F)c1F)C(=O)N[C@H](C(=O)N[C@@H](CO)C(=O)N[C@@H](CC(=O)O)C(=O)N[C@@H](Cc1ccc(-c2ccccc2)cc1)C(=O)N[C@@H](Cc1ccc(-c2ccccc2)cc1)C(N)=O)[C@@H](C)O [RXL-3018, His-Aib-Glu-Gly-Thr-Phe(2,3,4,5,6-F)-Thr-Ser-Asp-Bip-Bip-NH2] | 102 |  | 0.3 | GLP-1R agonist potency relative to RXL-3000 (hGLP1 receptor; versus RXL-3000): threefold less potent
C[C@@H](O)[C@H](NC(=O)CNC(=O)[C@H](CCC(=O)O)NC(=O)C(C)(C)NC(=O)[C@@H](N)Cc1c[nH]cn1)C(=O)N[C@@H](Cc1ccccc1[N+](=O)[O-])C(=O)N[C@H](C(=O)N[C@@H](CO)C(=O)N[C@@H](CC(=O)O)C(=O)N[C@@H](Cc1ccc(-c2ccccc2)cc1)C(=O)N[C@@H](Cc1ccc(-c2ccccc2)cc1)C(N)=O)[C@@H](C)O [RXL-3014, His-Aib-Glu-Gly-Thr-Phe(2-NO2)-Thr-Ser-Asp-Bip-Bip-NH2] | 104 |  | 1.1 | 
C[C@@H](O)[C@H](NC(=O)C(C)(C)NC(=O)[C@H](CCC(=O)O)NC(=O)C(C)(C)NC(=O)[C@@H](N)Cc1c[nH]cn1)C(=O)N[C@@](C)(Cc1ccccc1F)C(=O)N[C@H](C(=O)N[C@@H](CO)C(=O)N[C@@H](CC(=O)O)C(=O)N[C@@H](Cc1ccc(-c2ccccc2)cc1)C(=O)N[C@@H](Cc1ccc(-c2ccccc2)cc1)C(N)=O)[C@@H](C)O [RXL-3032, His-Aib-Glu-Aib-Thr-α-Me-Phe(2-F)-Thr-Ser-Asp-Bip-Bip-NH2] (H-H[Aib]E[Aib]T[αMePhe(2-F)]TSD[Bip][Bip]-NH2) | 118 |  |  | rescue of potency by Aib versus Ala substitution (hGLP1 receptor; Aib analog versus Ala analog at the same position): about 10 fold; decreased potency by Aib substitution (hGLP1 receptor; Aib-scanning, versus parent analog RXL-101): ≥ 100 fold; pEC50 (hGLP1 receptor; Table 4, Aib-scan peptides, 0% HSA): 7.80; dpEC50 (contribution of Cα-methylation) (hGLP1 receptor; dpEC50 = pEC50 (Aib) − pEC50 (Ala) − 0.97, Aib peptide versus the Ala peptide of the same line, 0% HSA): 0.37
C[C@@H](O)[C@H](NC(=O)CNC(=O)[C@H](CCC(=O)O)NC(=O)C(C)(C)NC(=O)[C@@H](N)Cc1c[nH]cn1)C(=O)N[C@@](C)(Cc1ccccc1)C(=O)N[C@H](C(=O)N[C@@H](CO)C(=O)N[C@@H](CC(=O)O)C(=O)N[C@@H](Cc1ccc(-c2ccccc2)cc1)C(=O)N[C@@H](Cc1ccc(-c2ccccc2)cc1)C(N)=O)[C@@H](C)O [RXL-3020, His-Aib-Glu-Gly-Thr-α-Me-Phe-Thr-Ser-Asp-Bip-Bip-NH2] (H-H[Aib]EGT[αMeF]TSD[Bip][Bip]-NH2) | 108 |  |  | 
C[C@H](NC(=O)[C@H](CO)NC(=O)[C@@H](NC(=O)[C@H](Cc1ccccc1F)NC(=O)[C@@H](NC(=O)CNC(=O)[C@H](CCC(=O)O)NC(=O)C(C)(C)NC(=O)[C@@H](N)Cc1c[nH]cn1)[C@@H](C)O)[C@@H](C)O)C(=O)N[C@@H](Cc1ccc(-c2ccccc2)cc1)C(=O)N[C@@H](Cc1ccc(-c2ccccc2)cc1)C(N)=O [RXL-3007, His-Aib-Glu-Gly-Thr-Phe(2-F)-Thr-Ser-Ala-Bip-Bip-NH2] (H-H[Aib]EGT[Phe(2-F)]TSA[Bip][Bip]-NH2) | 132 | 14 |  | EC50 (hGLP1 receptor; Table 4, Ala-scan peptides, 0% HSA, read-out: pEC50 (converted)): 4.79 nM
C[C@@H](O)[C@H](NC(=O)CNC(=O)[C@H](CCC(=O)O)NC(=O)C(C)(C)NC(=O)[C@@H](N)Cc1c[nH]cn1)C(=O)N[C@@H](Cc1ccccc1C#N)C(=O)N[C@H](C(=O)N[C@@H](CO)C(=O)N[C@@H](CC(=O)O)C(=O)N[C@@H](Cc1ccc(-c2ccccc2)cc1)C(=O)N[C@@H](Cc1ccc(-c2ccccc2)cc1)C(N)=O)[C@@H](C)O [RXL-3015, His-Aib-Glu-Gly-Thr-Phe(2-CN)-Thr-Ser-Asp-Bip-Bip-NH2] | 101 |  | 7.7 | 
